Assay [1] addresses T1, tau187 (Homo sapiens, UniProt P10636).
T1 construct: his; made in house; host or cells: bacteria
Description: UV absorbance spectra, binding to tau. As to conditions: trimer 15 uM, 0-17.6 uM tau187, isosbestic point. The method, then:
FIG. 2. UV absorbance spectra of purified A-type proanthocyanidin trimer as a function of increasing tau concentration. The curves from top to bottom (at A280) are as follows: 0 uM; 4.4 uM; 8.8 uM; 17.6 uM tau^187; proanthocyanidin trimer=15 uM. As is known in the art, the isobestic points are found where the curves overlap.
As shown by the data disclosed in the various figures, proanthocyanidins bind to tau and inhibit tau aggregation. In illustrative experiments, full-length tau and an engineered truncation fragment of tau (tau187) were generated by over-expression of the recombinant human protein in bacteria followed by purification to homogeneity by conventional chromatography. […] The UV spectra display an isosbestic point consistent with a specific binding mechanism. […] In these experiments, heparin-induced aggregation of tau into PHF-like fibers is routinely monitored by four methods: 1) enhanced Thioflavin S fluorescence emission; 2) increased turbidity measured by OD350; 3) ultracentrifugation of sarkosyl-treated samples, and 4) electron microscopy. […] To ensure that proanthocyanidin molecules were not simply binding to and precipitating tau in a non-specific manner, the amount of tau that fractionated with the pellet vs. supernatant after high-speed ultracentrifugation was analyzed.

The target of another assay is T2, Full-length tau (Homo sapiens, UniProt P10636).
T2 construct: full-length tau and an engineered truncation fragment of tau (tau187) were generated by over-expression of the recombinant human protein in bacteria; made in house; host or cells: bacteria
T2 sequence (P10636 1-441 isoform P10636-8): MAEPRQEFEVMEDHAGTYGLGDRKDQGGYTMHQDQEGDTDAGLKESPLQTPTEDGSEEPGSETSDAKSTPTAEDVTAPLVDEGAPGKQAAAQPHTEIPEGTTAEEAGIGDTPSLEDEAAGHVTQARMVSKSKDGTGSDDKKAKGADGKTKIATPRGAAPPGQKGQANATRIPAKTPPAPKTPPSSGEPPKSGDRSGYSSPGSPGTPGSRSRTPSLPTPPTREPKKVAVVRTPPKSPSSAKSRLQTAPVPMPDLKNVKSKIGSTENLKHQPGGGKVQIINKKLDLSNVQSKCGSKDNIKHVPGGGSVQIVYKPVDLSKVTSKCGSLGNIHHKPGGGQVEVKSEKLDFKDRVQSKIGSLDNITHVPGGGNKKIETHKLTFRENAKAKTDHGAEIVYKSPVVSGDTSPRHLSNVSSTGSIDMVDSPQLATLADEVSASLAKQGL
Briefly: Ultracentrifugation and SDS-PAGE of pellet vs supernatant, full-length tau. The format is biochemical. Conditions: 200 uM trimer; 45 min; 100,000 g x 60 min (FIG. 3b). The method, then:
(§1) FIG. 3. Proanthocyanidins inhibit tau aggregation. A) Turbidity assay. Aggregation of FL-tau (50 uM) was initiated with heparin (0.1 mg/ml) in 20 mM NaPO4, pH 7.0. Curve 1: no proanthocyanidin; Curve 2: 200 uM purified A-type trimer. B) After 45 min, reactions were centrifuged at 100,000 g×60 min. The amount of tau in the pellets (P) vs. supernatants (S) were examined by SDS-PAGE. Markers (top to bottom) are 97, 66, 45 kDa. C, D) EM after aggregation for 45 min. Scale bars=500 nm; C) no proanthocyanidin, D) 200 uM purified A-type trimer.
FIG. 4. Cinnamon extract inhibits tau aggregation. […] Samples were then treated with 1% sarkosyl for 1 hr, centrifuged (105,000 g×1 hr), and the pellets (P) versus supernatants (S) then analyzed by SDS-PAGE. […]
(§2) As shown by the data disclosed in the various figures, proanthocyanidins bind to tau and inhibit tau aggregation. […] In these experiments, heparin-induced aggregation of tau into PHF-like fibers is routinely monitored by four methods: 1) enhanced Thioflavin S fluorescence emission; 2) increased turbidity measured by OD350; 3) ultracentrifugation of sarkosyl-treated samples, and 4) electron microscopy. […] To ensure that proanthocyanidin molecules were not simply binding to and precipitating tau in a non-specific manner, the amount of tau that fractionated with the pellet vs. supernatant after high-speed ultracentrifugation was analyzed.

The next assay has as its target T3, FL-tau (Homo sapiens, UniProt P10636).
T3 construct: full-length tau and an engineered truncation fragment of tau (tau187) were generated by over-expression of the recombinant human protein in bacteria; made in house; host or cells: bacteria
Briefly: Electron microscopy of FL-tau fibers. The format is biochemical. Conditions: FL-tau 50 uM, heparin 0.1 mg/ml; trimer 200 uM (FIG. 3d). The method, then:
as §1, §2

The next assay concerns adipocyte cells. Conditions: 0.1 mg/ml PA trimer; Graves et al. 2001; cited from earlier work.
Assay [2] has as its target T1, tau187. Description: Electron microscopy of tau187 fibers. The format is biochemical. Conditions: tau187 50 uM, heparin 0.1 mg/ml; trimer 200 uM (FIG. 6). The method, then: FIG. 6. […] Aggregation of tau^187 (50 uM) was initiated with heparin (0.1 mg/ml) in 20 mM NaPO4, pH 7.0. in the presence of: no proanthocyanidin (left panel), or 200 uM purified A-type trimer (right panel). Scale: Bars=500 nm
FIG. 13. Effect of oxidized cinnamon on tau filament formation. […] Left panel: no cinnamon; right panel 10 μM oxidized cinnamon.
FIG. 15A. […] 50 μM Tau^187 was incubated with 0.11 mg/ml heparin (18 kDa) at 23° C. Aggregation was monitored by turbidity (OD350). Cinnamaldehyde was present at a final concentration of 0, 50 and 100 μM. FIG. 15B. Electron microscopy of tau fibers in the presence of cinnamaldehyde (CA). Tau fibers were visualized by electron microscopy after 5 hrs of aggregation in the presence of: 0 CA (left panel); B) 100 uM CA (right panel). […] FIG. 15 C. Trans-cinnamaldehyde chemical structure.
Two hexapeptide motifs in tau are critical for tau aggregation and fiber formation (see, e.g. von Bergen et al., Proc Nad Acad Sci USA 97, 5129-34 (2000)). These motifs lie in the first and second inter-repeat regions of the MT binding domain (FIG. 5), and it is known that engineered truncation fragments of tau that contain these motifs often undergo aggregation into fibers even more efficiently than the full-length molecule (see, e.g. Barghorn et al., Biochemistry 41, 14885-96 (2002)). […]

Assay [3] deals with tau-dependent MT assembly. Description: Tau-dependent microtubule assembly, turbidity OD350. Format: biochemical. As to conditions: tubulin 5 uM, tau187, turbidity OD350. The method, then: FIG. 9. […] Tubulin (5 uM) was incubated (a) alone, or with (b) CE, (c) tau or (d) both. MT assembly was monitored by turbidity at OD350 in a continuous spectrophotometric assay.
The normal function of tau in neurons is to regulate MT assembly and dynamics. Thus it is desirable for a potential AD therapeutic to inhibit tau aggregation but not impede normal tau function. To test this, purified tubulin was incubated with either CE, tau187 or both, and MT assembly was monitored by solution turbidity. […] The reason for this is unclear, but since tau is normally an unstructured molecule, it is possible that CE promotes a conformer in tau that favors MT binding. Thus CE and proanthocyanidins appear to act as specific inhibitors of tau aggregation that are free of side effects on normal neuron function.

In a further assay the test system is tau. Description: Tau aggregation / AD fiber formation in vitro (method not specified). Format: biochemical. The method, then:
In a first illustrative embodiment of an extraction procedure of the invention, an extract is obtained by using nanopure water equal to 10 times the weight of cinnamon. The mixture is heated for 10 minutes at 95° C., cooled, and centrifuged at 14,000 rpm. The nearly clear supernatant is centrifuged again and then the clear supernatant is filtered through 0.4 and 0.2 micron filters and lyophilized. A fluffy pale tan colored powder can be obtained.

T1 sequence (P10636 572-758 limits assumed): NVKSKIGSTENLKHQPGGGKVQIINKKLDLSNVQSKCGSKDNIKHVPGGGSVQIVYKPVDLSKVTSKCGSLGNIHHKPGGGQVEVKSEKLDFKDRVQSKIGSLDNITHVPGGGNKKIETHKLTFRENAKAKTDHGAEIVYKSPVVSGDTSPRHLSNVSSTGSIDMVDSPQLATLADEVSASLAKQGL
Chain of tau (P10636 572-758 limits assumed): as above
T3 sequence (P10636 1-441 isoform P10636-8): as the sequence (P10636 1-441 isoform P10636-8) above

As for “A-linked proanthocyanidin trimer [A-type trimer]”, the “Binding to tau by change in UV absorbance spectrum” value on tau187 [1] is listed as “displays affinity for monomeric tau”; at tau187 [1] (listed as proanthocyanidin A), “binds directly to tau”. Also, the “Tau in pellet vs supernatant after ultracentrifugation” value on Full-length tau was “remain in the soluble fraction”. On FL-tau, the “FL-tau fibers by EM after aggregation for 45 min” value is “short fibers that were very much less abundant”. Further, in the assay with adipocyte cells, the Glucose uptake result is listed as “increase in glucose uptake”. Besides, at tau187 [2], the “Inhibition of tau187 aggregation by EM” value is “effectively inhibited”. Besides, the “Effect on tau-dependent MT assembly” value in assay [3] is “does not inhibit”. For the same substance, the “Concentration that completely inhibits tau aggregation in vitro” value with tau (complete inhibition of tau aggregation/AD fiber formation) came out at 0.17 mg/ml PA trimer. Further, in the assay on tau (same amount of PA trimer, fraction of CE effect), the “Effectiveness of purified PA trimer relative to CE” value is “½”.

(Values after patent US20110263696A1, “PROANTHOCYANIDINS FROM CINNAMON AND ITS WATER SOLUBLE EXTRACT INHIBIT TAU AGGREGATION” (priority 2007, published 2011).)
